# Measurements: patent US12186328B2, “Use of CSA compounds to stimulate stem cells and hair growth” (Brigham Young University, priority 2019, dated 2025)
# Assays:
# [1] = tested on: hair loss associated with a dermal fungal infection; assay: Horse with "summer itch" hair loss treated with a composition including CSA-44; type: in vivo
# Description: A treatment composition including CSA-44 was applied to a horse having a “summer itch” condition associated with a dermal fungal infection. […] As shown, the subject horse had several patches of visible hair loss. […] As shown, hair had regrown to completely fill in the previous patches and the regrown hair was thick and full. Typical time for hair to grow back on a horse following treatment of such a fungal infection is approximately 28 days. The CSA-based treatment therefore regenerated hair growth 1.56 times faster than a conventional treatment.
# [2] = tested on: hair growth on depilated dorsal skin of C57BL/6 mice; assay: Mouse model of hair regrowth after shaving and depilation, topical CSA-44 cream; type: in vivo, mice (C57BL/6); conditions: for Percentage Change in Hair growth: Day 21, compared with vehicle treated control group; for Hair growth scoring Day 1 / Hair growth scoring Day 3 / Hair growth scoring Day 7 / Hair growth scoring Day 10 / Hair growth scoring Day 14 / Hair growth scoring Day 17: Mean ± SE, n = 8, score 0-10
# Description: A mouse model was used to test the effectiveness of a CSA-based treatment composition in stimulating stem cells and regenerating hair growth. Male C57BL/6 mice aged 8 weeks, were housed under environmentally monitored conditions and were fed a standard rodent diet. The hair on the dorsal surface of each mouse was shaved with an animal clipper, which was then followed by application of a depilatory cream to clean the remaining hair as described by Jung M K et al (Life Sci. 2015 May 1; 128:39-46). The mice were then allowed to rest for 24 h.
# On the day of experiment, all the animals were weighed and randomized into different treatment groups (n=8) according to body weight. Randomized animals were identified by individual animal marking and cage cards were used for group identification.
# The animals of Group 1, the control mice, were treated topically with the cream-based vehicle. The animals of Group 2 were treated topically with 100 mg of […] once daily for 3 weeks. The animals in Group 3 were treated topically with 100 mg of 2.0% CSA-44 test compound once every other day for 3 weeks.
# A preliminary tolerability study was conducted in C57BL/6 mice for selecting an appropriate well tolerated dose for the present efficacy study. Based on the results from the preliminary dose tolerability study, 100 mg of a formulation containing 0.5% CSA-44 was uniformly applied topically on the shaven areas of the dorsal skin once daily for 3 weeks. Similarly, 100 mg of 2% CSA-44 formulation was applied topically every other day for 3 weeks. 100 mg of cream vehicle was applied topically on the shaved areas once daily for 3 weeks.
# The hair-growth score was evaluated using the scoring pattern below as described by Vegesna et al (Endocrinology 143(11):4389-4396). A score of ‘0’ indicates no change in the amount of hair growth compared with the hair-loss induction day and a score of ‘10’ indicates full hair growth on the entire site on the dorsal skin. Darkening and hair-growth rate was monitored twice weekly for 3 weeks. Images of the dorsal skin of the mice were captured using a digital camera at weekly intervals to notice the start of hair regrowth period and the hair regrowth pattern.
# Body weight of the animals were recorded once prior to randomization (pre dose) and twice weekly during the course of the study. All animals were observed once daily for clinical signs and twice daily (morning and evening) for mortality and morbidity. No mortality was observed during the study period. Animals were sacrificed at the end of the study period by following a standard protocol using CO2 induced euthanasia. Results
# Hair growth score and body weight were recorded twice weekly during the study period. The percentage (%) change in hair growth was calculated on Day 21 by comparing the treated mice with the vehicle treated control group.
# [3] = 0.5% CSA-44, topical, once daily for 3 weeks
# [4] = 2% CSA-44, topical, once every other day for 3 weeks
compound,measurement,setting,value
CCCCCCCCOC(=O)CC[C@@H](C)[C@H]1CC[C@H]2[C@@H]3[C@H](OC(=O)CCN)C[C@@H]4C[C@H](OC(=O)CCN)CC[C@]4(C)[C@H]3C[C@H](OC(=O)CCN)[C@]12C [CSA-44],Hair growth regeneration speed versus conventional treatment,[1]; 18 days versus typical approximately 28 days,1.56 times faster
same,Treatment time after which hair had regrown to completely fill in the previous patches,"[1]; horse, composition including CSA-44",18 days
same,Percentage Change in Hair growth,[2]; [3],72%
same,Hair growth scoring Day 1,[2]; [3],0.00
same,Hair growth scoring Day 3,[2]; [3],0.25
same,Hair growth scoring Day 7,[2]; [3],0.50
same,Hair growth scoring Day 10,[2]; [3],1.38
same,Hair growth scoring Day 14,[2]; [3],2.63
same,Hair growth scoring Day 17,[2]; [3],4.88
same,Percentage Change in Hair growth,[2]; [4],66%
same,Hair growth scoring Day 1,[2]; [4],0.00
same,Hair growth scoring Day 3,[2]; [4],0.38
same,Hair growth scoring Day 7,[2]; [4],0.50
same,Hair growth scoring Day 10,[2]; [4],1.50
same,Hair growth scoring Day 14,[2]; [4],2.50
same,Hair growth scoring Day 17,[2]; [4],4.13
same,Skin area with black hair compared with control group,"[2]; CSA-44 treated groups, end of 3 weeks",larger
